# In patent US10717716B2, “1,3,4-oxadiazole derivative compounds as histone deacetylase 6 inhibitor, and the pharmaceutical composition comprising the same” (Chong Kun Dang Pharmaceutical Corp., priority 2015, dated 2020):
# Target: T1, human recombinant HDAC6 (Homo sapiens, UniProt Q9UBN7)
# T1 construct: purchased Calbiochem 382180
# T1 sequence (Q9UBN7 1-1215): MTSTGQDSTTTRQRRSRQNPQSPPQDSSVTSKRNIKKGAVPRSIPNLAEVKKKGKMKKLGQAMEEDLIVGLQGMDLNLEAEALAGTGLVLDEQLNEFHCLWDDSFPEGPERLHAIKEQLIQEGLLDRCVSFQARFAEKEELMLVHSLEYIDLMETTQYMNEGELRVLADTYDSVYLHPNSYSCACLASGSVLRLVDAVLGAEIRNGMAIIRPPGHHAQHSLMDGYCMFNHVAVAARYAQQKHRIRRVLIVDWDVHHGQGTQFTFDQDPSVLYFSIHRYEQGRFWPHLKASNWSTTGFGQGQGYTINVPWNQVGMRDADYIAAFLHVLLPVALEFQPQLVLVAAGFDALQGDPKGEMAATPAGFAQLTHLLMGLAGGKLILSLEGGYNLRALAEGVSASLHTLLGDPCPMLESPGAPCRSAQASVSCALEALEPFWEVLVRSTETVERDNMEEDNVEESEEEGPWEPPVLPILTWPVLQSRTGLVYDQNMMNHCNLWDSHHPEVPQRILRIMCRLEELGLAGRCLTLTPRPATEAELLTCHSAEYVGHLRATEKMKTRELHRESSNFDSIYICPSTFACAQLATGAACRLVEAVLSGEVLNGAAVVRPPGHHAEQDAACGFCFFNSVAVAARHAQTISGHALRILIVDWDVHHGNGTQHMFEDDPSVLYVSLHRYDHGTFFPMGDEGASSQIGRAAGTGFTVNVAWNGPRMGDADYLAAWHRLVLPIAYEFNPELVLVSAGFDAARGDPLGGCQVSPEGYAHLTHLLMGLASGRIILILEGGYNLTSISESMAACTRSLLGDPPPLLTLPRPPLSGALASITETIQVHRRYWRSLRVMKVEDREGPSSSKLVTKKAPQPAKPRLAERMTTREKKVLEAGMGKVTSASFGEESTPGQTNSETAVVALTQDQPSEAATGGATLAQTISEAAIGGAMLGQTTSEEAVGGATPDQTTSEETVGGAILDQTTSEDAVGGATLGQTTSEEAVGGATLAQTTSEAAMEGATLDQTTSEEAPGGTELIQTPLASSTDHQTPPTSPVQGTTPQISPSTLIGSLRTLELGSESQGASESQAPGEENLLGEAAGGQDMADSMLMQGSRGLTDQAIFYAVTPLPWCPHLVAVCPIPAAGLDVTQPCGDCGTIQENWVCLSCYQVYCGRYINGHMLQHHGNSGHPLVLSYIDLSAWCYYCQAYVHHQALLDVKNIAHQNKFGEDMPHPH
# Assay: HDAC6 enzyme activity inhibition assay (HDAC Fluorimetric Drug Discovery Kit)
# Format: biochemical
# Conditions: for HDAC6 selectivity (fold): HDAC6 over HDAC1; for IC50: human recombinant HDAC6, same protocol as HDAC1, read-out: HDAC6
# Method in brief: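 Human recombinant HDAC1 or HDAC6 (0.3 μg) reacted with 10 μM Fluor de Lys-SIRT1 substrate and 5-fold compound dilutions for 60 min at 30 °C. Developer II added for 30 min, fluorescence read at Ex 360/Em 460; IC50 calculated from the readings.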
Structure (SMILES),HDAC6 selectivity (fold),IC50
"O=C(N1CCN(C2COC2)CC1)N(Cc1ccc(-c2nnc(C(F)F)o2)cc1)c1cccc(F)c1 [Compound 21936, N-(4-(5-(Difluoromethyl)-1,3,4-oxadiazol-2-yl)benzyl)-N-(3-fluorophenyl)-4-(oxetan-3-yl)piperazine-1-carboxamide]",91 fold,110 nM
"CCN1CCN(C(=O)N(Cc2ccc(-c3nnc(C(F)F)o3)cn2)c2ccc(F)cc2)CC1 [Compound 21888, N-((5-(5-(Difluoromethyl)-1,3,4-oxadiazol-2-yl)pyridin-2-yl)methyl)-4-ethyl-N-(4-fluorophenyl)piperazine-1-carboxamide]",388 fold,26 nM
"CN1CCN(C(=O)N(Cc2ccc(-c3nnc(C(F)F)o3)cc2F)c2ccc(-c3cccnc3)cc2)CC1 [Compound 21540, N-(4-(5-(difluoromethyl)-1,3,4-oxadiazol-2-yl)-2-fluorobenzyl)-4-methyl-N-(4-(pyridin-3-yl)phenyl)piperazine-1-carboxamide]",333 fold,30 nM
"O=C(N1CCS(=O)(=O)CC1)N(Cc1ccc(-c2nnc(C(F)(F)F)o2)cc1)c1cccc(F)c1 [Compound 21392, N-(3-fluorophenyl)-N-(4-(5-(trifluoromethyl)-1,3,4-oxadiazol-2-yl)benzyl)thiomorpholine-4-carboxamide 1,1-dioxide]",65 fold,153 nM
"O=C(N1CCCCC1)N(Cc1ccc(-c2nnc(C(F)(F)F)o2)cc1)c1ccccc1 [Compound 21351, N-phenyl-N-(4-(5-(trifluoromethyl)-1,3,4-oxadiazol-2-yl)benzyl)piperidine-1-carboxamide]",38 fold,261 nM
"O=C(N1CCOCC1)N(Cc1c(F)cc(-c2nnc(C(F)(F)F)o2)cc1F)c1ccccc1 [Compound 21431, N-(2,6-difluoro-4-(5-(trifluoromethyl)-1,3,4-oxadiazol-2-yl)benzyl)-N-phenylmorpholine-4-carboxamide]",39 fold,256 nM
"O=C(NCCN1CCC(N2CCOCC2)CC1)N(Cc1ccc(-c2nnc(C(F)F)o2)cc1F)c1ccccc1 [Compound 22003, 1-(4-(5-(Difluoromethyl)-1,3,4-oxadiazol-2-yl)-2-fluorobenzyl)-3-(2-(4-morpholinopiperidin-1-yl)ethyl)-1-phenylurea]",99 fold,101 nM
"CCN1C[C@@H](C)N(Cc2ccc(N(Cc3ccc(-c4nnc(C(F)F)o4)cc3F)C(=O)N3CCS(=O)(=O)CC3)cc2)[C@@H](C)C1 [Compound 21934, N-(4-(5-(difluoromethyl)-1,3,4-oxadiazol-2-yl)-2-fluorobenzyl)-N-(4-(((2R,6S)-4-ethyl-2,6-dimethylpiperazin-1-yl)methyl)phenyl)thiomorpholine-4-carboxamide 1,1-dioxide]",15 fold,667 nM
"O=C(N1CCOCC1)N(Cc1ccc(-c2nnc(C(F)F)o2)cc1F)c1ccc(F)cc1 [Compound 21841, N-(4-(5-(difluoromethyl)-1,3,4-oxadiazol-2-yl)-2-fluorobenzyl)-N-(4-fluorophenyl)morpholine-4-carboxamide]",382 fold,26 nM

# Further molecules by falling IC50, results first:
HDAC6 selectivity (fold),IC50,Structure (SMILES)
1 fold,8360 nM,"O=C(N1CCOCC1)N(CCc1ccc(-c2nnc(C(F)(F)F)o2)cc1)c1ccccc1 [Compound 21348, N-phenyl-N-(4-(5-(trifluoromethyl)-1,3,4-oxadiazol-2-yl)phenethyl)morpholine-4-carboxamide]"
10 fold,1010 nM,"O=C(N1CCS(=O)(=O)CC1)N(Cc1ccccc1)Cc1ccc(-c2nnc(C(F)(F)F)o2)cc1 [Compound 21374, N-benzyl-N-(4-(5-(trifluoromethyl)-1,3,4-oxadiazol-2-yl)benzyl)thiomorpholine-4-carboxamide 1,1-dioxide]"
26 fold,386 nM,"O=C(N1CCOCC1)N(CCc1ccccc1)Cc1ccc(-c2nnc(C(F)F)o2)cc1F [Compound 21555, N-(4-(5-(difluoromethyl)-1,3,4-oxadiazol-2-yl)-2-fluorobenzyl)-N-phenethylmorpholine-4-carboxamide]"
36 fold,279 nM,"O=C(N1CCS(=O)(=O)CC1)N(Cc1ccc(-c2nnc(C(F)F)o2)cc1)c1cccc(-c2ccccc2)c1 [Compound 21502, N-([1,1′-biphenyl]-3-yl)-N-(4-(5-(difluoromethyl)-1,3,4-oxadiazol-2-yl)benzyl)thiomorpholine-4-carboxamide 1,1-dioxide]"
38 fold,266 nM,"CCN1CCN(CCCOc2ccc(N(Cc3ccc(-c4nnc(C(F)F)o4)cc3F)C(=O)N3CCS(=O)(=O)CC3)cc2)CC1 [Compound 21972, N-(4-(5-(difluoromethyl)-1,3,4-oxadiazol-2-yl)-2-fluorobenzyl)-N-(4-(3-(4-ethylpiperazin-1-yl)propoxy)phenyl)thiomorpholine-4-carboxamide 1,1-dioxide]"
62 fold,160 nM,"COc1ccc(N(Cc2ccc(-c3nnc(C(F)F)o3)cn2)C(=O)N2CCN(C3COC3)CC2)cc1 [Compound 21953, N-((5-(5-(Difluoromethyl)-1,3,4-oxadiazol-2-yl)pyridin-2-yl)methyl)-N-(4-methoxyphenyl)-4-(oxetan-3-yl)piperazine-1-carboxamide]"
88 fold,114 nM,"CCN1CC2(CCN(C(=O)N(Cc3ccc(-c4nnc(C(F)F)o4)cc3F)c3ccc4cnn(C)c4c3)CC2)C1 [Compound 21765, N-(4-(5-(Difluoromethyl)-1,3,4-oxadiazol-2-yl)-2-fluorobenzyl)-2-ethyl-N-(1-methyl-1H-indazol-6-yl)-2,7-diazaspiro[3.5]nonane-7-carboxamide]"
105 fold,95 nM,"Cc1ccc(N(Cc2ccc(-c3nnc(C(F)F)o3)cc2F)C(=O)N2CCOCC2)c(F)c1 [Compound 21856, N-(4-(5-(difluoromethyl)-1,3,4-oxadiazol-2-yl)-2-fluorobenzyl)-N-(2-fluoro-4-methylphenyl)morpholine-4-carboxamide]"
109 fold,91 nM,"COCCN1CCN(CCNC(=O)N(Cc2ccc(-c3nnc(C(F)F)o3)cc2F)c2ccccc2)CC1 [Compound 21997, 1-(4-(5-(Difluoromethyl)-1,3,4-oxadiazol-2-yl)-2-fluorobenzyl)-3-(2-(4-(2-methoxyethyl)piperazin-1-yl)ethyl)-1-phenylurea]"
117 fold,86 nM,"CN1CCN(CCNC(=O)N(Cc2ccc(-c3nnc(C(F)F)o3)cc2F)c2ccccc2)CC1 [Compound 21993, 1-(4-(5-(Difluoromethyl)-1,3,4-oxadiazol-2-yl)-2-fluorobenzyl)-3-(2-(4-methylpiperazin-1-yl)ethyl)-1-phenylurea]"
226 fold,44 nM,"COc1cccc(N(Cc2ccc(-c3nnc(C(F)F)o3)cn2)C(=O)N2CCN(C)CC2)c1 [Compound 21622, N-((5-(5-(difluoromethyl)-1,3,4-oxadiazol-2-yl)pyridin-2-yl)methyl)-N-(3-methoxyphenyl)-4-methylpiperazine-1-carboxamide]"
405 fold,25 nM,"O=C(N1CC2(COC2)C1)N(Cc1ccc(-c2nnc(C(F)F)o2)cc1F)c1cccc(F)c1 [Compound 21759, N-(4-(5-(difluoromethyl)-1,3,4-oxadiazol-2-yl)-2-fluorobenzyl)-N-(3-fluorophenyl)-2-oxa-6-azaspiro[3.3]heptane-6-carboxamide]"
500 fold,20 nM,"O=C(N1CCS(=O)(=O)CC1)N(Cc1ccc(-c2nnc(C(F)F)o2)cn1)c1ccccc1 [Compound 21373, N-((5-(5-(difluoromethyl)-1,3,4-oxadiazol-2-yl)pyridin-2-yl)methyl)-N-phenylthiomorpholine-4-carboxamide 1,1-dioxide]"
